Patent US9585888B2, “Reduction of toxicity of multi-targeting antifolates” (Isofol Medical AB, priority 2003, dated 2017)
Where two headings read alike, the source gives them in different places.

How the values were obtained:
tumor growth = settings: cited from earlier work
[1] = tested on: experimental adenocarcinoma
Protocol: Eight inbred female Wistar rats were during general anesthesia inoculated in the central liver lobe with 0.1 ml of 1.0 million viable tumor cells of an experimental adenocarcinoma. On day 5 the animals were relaparotomized during general anesthesia, the body weight was recorded and the size of the solitary liver tumor was measured with vernier calipers.
The animals were randomly allocated to two groups. Group 1 received intravenous injections of ALIMTA (pemetrexed) 0.01 mg/kg and group 2 received 0.1 mg/kg of ALIMTA. Both groups received 15 mg/kg of R-5,10-CH2FH4 immediately following the injections of ALIMTA. Therapy was administered through intravenous injections via the tail vein on days 6-8 and days 11-12. On day 13 all animals were sacrificed by an overdose of anesthesia.
The body weights were recorded and the size of the liver tumors was measured. The wet weights of the excised liver tumor and spleen were recorded.

TS = TS expression levels after Tomudex intravenous bolus injection in colorectal cancer patients; assay type: in vivo; settings: multi-targeting antifolate only
Protocol: In this experiment, the effect of a multi-targeting antifolate, i.e. Tomudex (raltitrexed), was shown.
Nine colorectal cancer patients were included in the study, and the expression levels were measured in actin, which is a protein serving as an important structural molecule for the cytoskeletons of many eukaryotic cells.

[2] = Tissue concentration of methylene-THF in tumor biopsy after i.v. bolus injection of folates; assay type: in vivo, patients; settings: tumor biopsy at 20 minutes after i.v. bolus injection; compared with leucovorin
Protocol: The level of increase of tissue concentration of methylene-THF after administration of leucovorin and methylene-THF, respectively, has been compared. Patients operated upon due to liver metastases were given a dose of folates. Biopses were taken from the tumor before i.v. bolus injection of leucovorin on methylenetetrahydrofolate. At 20 minutes a new tumor biopsy was taken and the concentration of MTHF was assayed.

O=c1[nH]cc(F)c(=O)[nH]1 [5-FU, 5-fluorouracil]
tumor growth suppression (tumor growth; 5-FU administered to folate depleted animals 1 hr after folinic acid): approximately 80%
tumor growth suppression (tumor growth; control mice): approximately 50%
effect on tumor growth (tumor growth; folinic acid administered 12 hr before 5-FU): tumor growth stimulation

Nc1nc2[nH]cc(CCc3ccc(C(=O)N[C@@H](CCC(=O)O)C(=O)O)cc3)c2c(=O)[nH]1 [ALIMTA, pemetrexed]
extrahepatic tumor growth ([1]; ALIMTA 0.01 mg/kg i.v. + 15 mg/kg R-5,10-CH2FH4 (group 1), day 13): extrahepatic tumor growth in the abdominal cavity as metastases to the lungs
extrahepatic metastases ([1]; highest Alimta dose (0.1 mg/kg i.v.) + 15 mg/kg R-5,10-CH2FH4 (group 2)): no extrahepatic metastases were recorded

Cc1nc2ccc(CN(C)c3ccc(C(=O)N[C@@H](CCC(=O)O)C(=O)O)s3)cc2c(=O)[nH]1 [Tomudex, raltitrexed]
clinical toxicity (TS; clinical findings): severe toxic effects from the bowel made it impossible to continue the treatment
effect on normal mucosa versus tumor (TS expression levels) (TS; intravenous bolus injection): the normal mucosa is actually more adversely affected than the tumor

Nc1nc2c(c(=O)[nH]1)N(C=O)C(CNc1ccc(C(=O)N[C@@H](CCC(=O)O)C(=O)O)cc1)CN2 (stereo partly drawn) [folinic acid]
effect on tumor growth (tumor growth; folinic acid administered without 5-FU): pronounced growth stimulation

Nc1nc2c(c(=O)[nH]1)N1CN(c3ccc(C(=O)N[C@@H](CCC(=O)O)C(=O)O)cc3)CC1CN2 (stereo partly drawn) [methylene-THF, 5,10-methylene-tetrahydrofolate]
tissue concentration of methylene-THF in tumor [2]: greater tissue concentration of methylene-THF than leucovorin
